Measurements from ChEMBL document CHEMBL5247626, “In vitro and in vivo biological evaluation of newly synthesized multi-target 20(R)-panaxadiol derivatives for treating Alzheimer's disease” (Eur J Med Chem, 2022).
The source made the active and inactive calls. No cut-off for these calls is given here.

Assays:
PC-12 [1] = experiment: Neuroprotective activity against amyloid beta (25 to 35)-induced rat PC12 cells assessed as decrease in total tau protein expression level at 15 uM preincubated for 30 mins followed by amyloid beta (25 to 35) addition and measured after 24 hrs by western blot assay; format: functional, cell-based; settings: time 24.5 hrs
PC-12 [2] = experiment: Neuroprotective activity against amyloid beta (25 to 35)-induced rat PC12 cells assessed as decrease in tau hyperphosphorylation at Thr181 at 15 uM preincubated for 30 mins followed by amyloid beta (25 to 35) addition and measured after 24 hrs by western blot assay; format: functional, cell-based; settings: time 24.5 hrs
PC-12 [3] = experiment: Neuroprotective activity against amyloid beta (25 to 35)-induced rat PC12 cells assessed as decrease in intracellular ROS level at 7.5 uM incubated for 24 hrs by DCFH-DA staining based flow cytometry assay; format: functional, cell-based
PC-12 [4] = experiment: Neuroprotective activity against amyloid beta (25 to 35)-induced rat PC12 cells assessed as reduction in amyloid beta (25 to 35)-induced apoptosis rate at 15 uM incubated for 15 mins by Annexin V-FITC/PI staining based flow cytometric analysis (reference value: 2.9%); format: functional; set-up: scale not given: the % may be the effect or the level left; settings: 0.25 h

For CC1(C)CCC[C@](C)([C@H]2CC[C@]3(C)[C@@H]2[C@H](O)C[C@@H]2[C@@]4(C)CC[C@H](O)C(C)(C)[C@@H]4CC[C@]23C)O1 [PANAXADIOL], the Activity (PC-12 [1]) was “Active”, the Activity (PC-12 [2]) was “Active” and the Activity (PC-12 [3]) was “Active”. For the same compound, the Activity (PC-12 [4]) was 5.4%.
